The source of these data is patent publication US20190135887A1, “METABOLICALLY STABLE SPEXIN PEPTIDE ANALOGS” (UNIVERSITÉ DE STRASBOURG, priority 2016, published 2019).

For one data set, the target named is T1, GalR2 (Homo sapiens, UniProt O43603).
T1 construct: expressed in transfected cells; host or cells: CHO cells
T1 sequence (O43603 1-387): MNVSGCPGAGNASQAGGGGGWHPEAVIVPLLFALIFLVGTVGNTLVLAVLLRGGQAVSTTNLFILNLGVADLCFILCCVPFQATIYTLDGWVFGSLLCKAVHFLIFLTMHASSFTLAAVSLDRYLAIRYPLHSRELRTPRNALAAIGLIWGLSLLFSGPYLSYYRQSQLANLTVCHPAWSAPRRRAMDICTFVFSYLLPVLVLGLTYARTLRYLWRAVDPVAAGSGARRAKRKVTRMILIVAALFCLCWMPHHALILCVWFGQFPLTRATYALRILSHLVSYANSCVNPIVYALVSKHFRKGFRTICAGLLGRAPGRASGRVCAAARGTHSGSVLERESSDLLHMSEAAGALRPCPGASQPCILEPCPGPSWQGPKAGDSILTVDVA
In words: Calcium mobilization in CHO cells expressing GalR2. Type of data set: cell-based. For orientation: A change in cytosolic calcium serves as a functional read-out for many receptors and channels.

In another data set the target is T2, human GALR1 (Homo sapiens, UniProt P47211).
T2 construct: expressed in transfected cells; transiently transfected with pGloSensor-22F
T2 sequence (P47211 1-349): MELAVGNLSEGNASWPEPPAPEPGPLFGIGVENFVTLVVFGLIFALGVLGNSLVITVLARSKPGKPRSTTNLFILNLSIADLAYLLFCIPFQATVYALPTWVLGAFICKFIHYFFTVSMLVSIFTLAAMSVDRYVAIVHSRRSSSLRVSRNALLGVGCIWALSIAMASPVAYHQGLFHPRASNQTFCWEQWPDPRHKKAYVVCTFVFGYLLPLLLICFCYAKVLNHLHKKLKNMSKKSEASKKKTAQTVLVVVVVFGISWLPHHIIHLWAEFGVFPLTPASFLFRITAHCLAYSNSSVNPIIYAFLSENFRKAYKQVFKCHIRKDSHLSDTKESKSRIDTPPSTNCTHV
In words: Forskolin-induced cAMP accumulation, GloSensor cAMP assay in HEK293 cells. Type of data set: cell-based. The following applies: HEK293 cells stably expressing GalR1, 1 μM compound. The protocol:
The effects were examined by using the GloSensor™ cAMP Assay according to manufacturer recommendations (Promega, Madison Wis., USA) with a few modifications. […] Following pre-equilibration for 2 h at 25° C., D-luciferin-loaded cells were distributed (100,000 cells per well) in a white 96-well plate and kinetic recordings of their luminescence level were acquired using a FlexStation II (Molecular Devices, Sunnyvale Calif., USA). Compounds to be tested were injected at various concentrations 10 min before forskolin addition (0.5 μM final concentration) and readings were pursued for 30 min. Experiments were conducted at 25° C. in the presence of 0.1 mM IBMX to prevent the degradation of cAMP by phospodiesterases.
(Changes in cAMP serve as a functional read-out for many G protein-coupled receptors.)

The nature of the next data set: Human plasma stability. The following applies: 37° C., 2 h incubation, read-out: Human plasma stability (t1/2). Type of data set: in vitro ADME. The protocol: This procedure is designed to determine the stability of a test compound in blood or plasma from human or animal species in a 96-well plate format. The test compound is quantified at 5 time points by HPLC-MS/MS analysis. Test concentration: 1 μM with a final DMSO concentration of 0.5%. Experimental protocol: Blood or plasma are pre-warmed at 37° C. water bath for 5 min, followed by addition of the test compound. The incubation is performed in a 37° C. water bath for 2 h. An aliquot of the incubation mixture is transferred to acetonitrile at 0, 0.5, 1, 1.5 and 2 h, respectively. Samples are then mixed and centrifuged. Supernatants are used for HPLC-MS/MS analysis. Reference compounds Propoxycaine and propantheline are tested simultaneously with the test compound in each assay. Analytical methods Samples are analyzed by HPLC-MS/MS using selected reaction monitoring. The HPLC system consists of a binary LC pump with autosampler, a C-18 column, and a gradient. Conditions may be adjusted as necessary. Data analysis Peak areas corresponding to the test compound are recorded. The compound remaining (%) is calculated by comparing the peak area at each time point to time zero. The half-life is calculated from the slope of the initial linear range of the logarithmic curve of compound remaining (%) vs. time, assuming first order kinetics.

Data set [1] is described as follows: Solubility in water by visual observation. The following applies: dissolution in water to reach 100 μM. It counts as physicochemical. As for the experimental part:
The resulting solution was vortexed 1 min following by 1 min in bath sonication. Solubility was then assessed by visual observation of the resulting dispersion (Clear/Cloudy and presence of particulates).

Data set [2] can be described thus: Non-specific adsorption to Eppendorf protein LoBind tubes. The following applies: 10 μM in HEPES/BSA buffer. The protocol: The propensity of spexin analogs to bind to Eppendorf protein LoBind tubes was evaluated.
A solution of 10 μM of spexin analogs in solution in HEPES/BSA buffer was added to Eppendorf protein LoBind tubes, stirred for 5 min and vortexed for 2 min. The supernatant was removed from the tube and acetonitrile was added to dissolve the compound adsorbed to the plastic. The amount of peptide recovered was then evaluated by HPLC-MS/MS following the same protocol than above described for plasma stability analysis. The non-specific adsorption of peptides (%) was calculated by comparing the peak area of each compound recovered to that obtained with the same compound in DMSO (prevent the adsorption of the compounds to plastic).

A further data set relates to C57BL/6N male mice. In words: Tail immersion test (nociception). It counts as in vivo. As for the experimental part: Tail immersion test: Nociception tests were performed on male, awake C57BL/6N male mice (25-30 g weight; Janvier Labs, France). Animals were housed in groups of five per cage and kept under a 12 h/12 h light/dark cycle at 21±1° C. with ad libitum access to food and water. Experiments were performed during the light-on phase of the cycle. Mice were habituated to the testing room and equipment and handled for 1 week before starting behavioural experiments. The nociceptive thermal threshold of mice was determined using the tail immersion test. Mice were restrained in a grid pocket and their tail was immersed in a thermostated water bath. The latency (in sec) for tail withdrawal from hot water (47±0.5° C.) was taken as a measure of the nociceptive response.

The target of data set [3] is T3, human galanin GAL2 receptor (Homo sapiens, UniProt O43603).
T3 construct: expressed in transfected cells; host or cells: CHO cells (membrane homogenates)
T3 sequence (O43603 1-387): T1 sequence (O43603 1-387)
In words: Radioligand binding assay, [125I]galanin, transfected CHO cell membranes. The following applies: read-out: Affinity % of inhibition at 100 nM. The protocol:
Following incubation, the samples are filtered rapidly under vacuum through glass fiber filters (GF/B, Packard) presoaked with 0.3% PEI and rinsed several times with ice-cold 50 mM Tris-HCl using a 96-sample cell harvester (Unifilter, Packard). The filters are dried then counted for radioactivity in a scintillation counter (Topcount, Packard) using a scintillation cocktail (Microscint 0, Packard). The results are expressed as a percent inhibition of the control radioligand specific binding.

The mark [4] stands for this setting: CHO cells expressing GalR2, Fluo-4 AM, 37° C., read-out: EC50 Ca2+ production.

Read-outs that look alike come from different tables or passages of the source. Peptide text beside a SMILES is read from it. * marks the point of attachment. Propanoyl(3-C8F17) = O=C(CCC(F)(F)C(F)(F)C(F)(F)C(F)(F)C(F)(F)C(F)(F)C(F)(F)C(F)(F)F)* A value given as a limit tells only on which side of the number the result lay.

As a reminder, the EC50 is the concentration needed to bring the measured effect to its halfway point. Turning to `CSCC[C@H](NC(=O)[C@H](C)NC(=O)[C@H](CCC(N)=O)NC(=O)[C@@H]1CCCN1C(=O)[C@@H](NC(=O)[C@H](Cc1c[nH]c2ccccc12)NC(=O)[C@H](CC(N)=O)NC(C)=O)[C@@H](C)O)C(=O)N[C@@H](CC(C)C)C(=O)N[C@@H](Cc1ccc(O)cc1)C(=O)N[C@@H](CC(C)C)C(=O)N[C@@H](CCCCN)C(=O)NCC(=O)N[C@@H](C)C(=O)N[C@@H](CCC(N)=O)C(=O)N[C@@H](CCCCNC(=O)CCC(F)(F)C(F)(F)C(F)(F)C(F)(F)C(F)(F)C(F)(F)C(F)(F)C(F)(F)F)C(N)=O` [LE-128], at GalR2 (setting [4]), the EC50 was found to be 2.3 ± 4 nM. For the same compound, the “% of activity at 1 μM” value at human GALR1 came to 0%.

`CSCC[C@H](NC(=O)[C@H](C)NC(=O)[C@H](CCC(N)=O)NC(=O)[C@@H]1CCCN1C(=O)[C@@H](NC(=O)[C@H](Cc1c[nH]c2ccccc12)NC(=O)[C@H](CC(N)=O)NC(C)=O)[C@@H](C)O)C(=O)N[C@@H](CC(C)C)C(=O)N[C@@H](Cc1ccc(O)cc1)C(=O)N[C@@H](CC(C)C)C(=O)N[C@@H](CCCCN)C(=O)NCC(=O)N[C@@H](C)C(=O)N[C@@H](CCC(N)=O)C(=O)N[C@@H](CCCCNC(=O)C(CCCNC(=N)N)NC(=O)CNC(=O)C(CCCNC(=N)N)NC(=O)CCC(F)(F)C(F)(F)C(F)(F)C(F)(F)C(F)(F)C(F)(F)C(F)(F)C(F)(F)F)C(N)=O` (some centres unmarked) [LE-146]: the concentration giving a half-maximal response (EC50) on GalR2 is 8.4 ± 0.7 nM.

As usually defined, the solubility is how much of the substance goes into solution per volume. By inhibition is commonly meant how much of the control response was suppressed. `CSCC[C@H](NC(=O)[C@H](C)NC(=O)[C@H](CCC(N)=O)NC(=O)[C@@H]1CCCN1C(=O)[C@@H](NC(=O)[C@H](Cc1c[nH]c2ccccc12)NC(=O)[C@H](CC(N)=O)NC(=O)CCC(F)(F)C(F)(F)C(F)(F)C(F)(F)C(F)(F)C(F)(F)C(F)(F)C(F)(F)F)[C@@H](C)O)C(=O)N[C@@H](CC(C)C)C(=O)N[C@@H](Cc1ccc(O)cc1)C(=O)N[C@@H](CC(C)C)C(=O)N[C@@H](CCCCN)C(=O)NCC(=O)N[C@@H](C)C(=O)N[C@@H](CCC(N)=O)C(N)=O` [LE-144]: in “Human plasma stability”, the half-life at 1 μM was 2.5 h. In data set [1], this compound yielded a solubility of more than 100 µM. Also, the EC50 at GalR2 (setting [4]) was found to be 0.038 ± 0.008 nM. The “% of activity at 1 μM” value on human GALR1 was determined as 0%. Further, in data set [2], the “Non-specific adsorption of peptide” value worked out at 42%. The “tail immersion withdrawal latency” value worked out at 14.26 ± 0.93 s in the data set with C57BL/6N male mice (0.1 nmol icv, 15 min, baseline 9.99±0.5 sec); 14.06 ± 0.34 s in the data set with C57BL/6N male mice (0.1 nmol icv, 30 min, baseline 9.99±0.5 sec); 15.58 ± 0.61 s in the data set on C57BL/6N male mice (1 nmol icv, 15 min, baseline 10.12±0.59 sec); 13.94 ± 0.75 s with C57BL/6N male mice (1 nmol icv, 30 min, baseline 10.12±0.59 sec). For the same compound, the inhibition at 0.1 µM in data set [3] was found to be 100%.

On to `CSCC[C@H](NC(=O)[C@H](C)NC(=O)[C@H](CCC(N)=O)NC(=O)[C@@H]1CCCN1C(=O)[C@@H](NC(=O)[C@H](Cc1c[nH]c2ccccc12)NC(=O)[C@@H](N)CC(N)=O)[C@@H](C)O)C(=O)N[C@@H](CC(C)C)C(=O)N[C@@H](Cc1ccc(O)cc1)C(=O)N[C@@H](CC(C)C)C(=O)N[C@@H](CCCCN)C(=O)NCC(=O)N[C@@H](C)C(=O)N[C@@H](CCC(N)=O)C(N)=O` [SPEXIN], for which the half-life at 1 μM in the data set “Human plasma stability” amounted to 2.52 h. In data set [1], this compound registered a solubility at 2 min of more than 100 µM. Also, the “% of activity at 1 μM” value at human GALR1 is on record as 0%. Also, in data set [3], the inhibition at 0.1 µM was 68.3%.

For the compound `CSCC[C@H](NC(=O)[C@H](C)NC(=O)[C@H](CCC(N)=O)NC(=O)[C@@H]1CCCN1C(=O)[C@@H](NC(=O)[C@H](Cc1c[nH]c2ccccc12)NC(=O)[C@H](CC(N)=O)NC(=O)[C@H](CCCNC(=N)N)NC(=O)CNC(=O)[C@H](CCCNC(=N)N)NC(=O)CCC(F)(F)C(F)(F)C(F)(F)C(F)(F)C(F)(F)C(F)(F)C(F)(F)C(F)(F)F)[C@@H](C)O)C(=O)N[C@@H](CC(C)C)C(=O)N[C@@H](Cc1ccc(O)cc1)C(=O)N[C@@H](CC(C)C)C(=O)N[C@@H](CCCCN)C(=O)NCC(=O)N[C@@H](C)C(=O)N[C@@H](CCC(N)=O)C(N)=O` [LE-130] ({Propanoyl(3-C8F17)}-RGRNWTPQAMLYLKGAQ-NH2), the half-life at 1 μM in “Human plasma stability” turned out to be 5.7 h. In data set [1], this compound displayed a solubility of more than 100 µM. On GalR2 (setting [4]), the EC50 stood at 0.089 ± 0.04 nM. In addition, the “% of activity at 1 μM” value on human GALR1 amounted to 0%. In data set [2], the “Non-specific adsorption of peptide” value is 15%. Further, the inhibition at 0.1 µM in data set [3] is 98.4%.
